Experimental data from US11439631B2, “Use of a glutarimide derivative to treat diseases related to the aberrant activity of cytokines” (“CHEMIMMUNE THERAPEUTICS” LIMITED LIABILITY COMPANY, priority 2017, dated 2022).

Experiments:
[1] = system: non-infectious pneumonia induced by cigarette smoke extract; assay: Non-infectious pneumonia induced by cigarette smoke extract, lung histology; format: in vivo, male Balb/c mice; details: 30 mg/kg intragastric daily day 7-27, 5-point scale; M ± m, n = 12
Method: The induction of non-infectious pneumonia in mice was carried out according to the standard procedure [Zhang Yl, Cao J, Chen Y, Chen P, Peng H, Cai S, Luo H, Wu SJ. […] Male Balb/c mice were intraperitoneally administered with cigarette smoke extract (CSE, 0.45 ml/20 mg) at 0, 11th, 15th, 17th, 19th and 22nd day. The CSE was prepared as follows: 5 cigarettes were burnt, using a vacuum pump, the smoke was filtered to remove particles and collected in a vessel containing a phosphate saline buffer. […] Euthanasia was carried out on the 28th day. The right lung lobe was fixed in 10% neutral formalin solution, passed through the alcohols of ascending concentrations to xylene, and embedded in paraffin by standard procedures. Deparaffinated 5-micron shears were stained with hematoxylin-eosin and the histological analysis was carried out.
Each lesion was evaluated according to a 5-point scale: 1 point—the inflammatory infiltrate occupies 0-20% of the area of the histological preparation under study, 2 point—the inflammatory infiltrate occupies 21-40% of the area of the histological preparation under study, 3 points—the inflammatory infiltrate occupies 41-60% of the area of the histological preparation under study, 4 points—the inflammatory infiltrate occupies 61-80% of the area of the histological preparation under study, 5 points—the inflammatory infiltrate occupies 81-100% of the area of the histological preparation under study. Alveolar destruction index (DI) as the percentage of the damaged alveoli relative to the total number of alveoli was also calculated.

[2] = system: acetic acid-induced abdominal constrictions; assay: Specific pain reaction by chemical stimulation of peritoneum (abdominal constriction test); format: in vivo, Balb/c mice; details: 30 mg/kg intragastric, M ± m, n = 12
Method: The model of the specific pain reaction by the method of chemical stimulation of peritoneum (“abdominal constriction” test) was carried out according to the standard procedure. To conduct the “abdominal constriction” test, Balb/c mice were intraperitoneally administered with 1% acetic acid in a volume of 10 ml per kg of the animal body weight. The test compound was administered intragastrically, once, 1 or 2 hour(s) before the administration of acetic acid. A quantity of constrictions (convulsive twitching of the abdominal muscles accompanied with stretching hind quarters and arching) was evaluated 15 minutes after the administration of acetic acid.

[3] = system: MCP-1 (CCL2); assay: MCP-1 level in blood serum of mice on the psoriasis model (ELISA); format: in vivo, female Balb/c mice; details: day 7, 30 mg/kg intragastric, M ± m, n = 10
Method: (§1) The induction of psoriasis in mice was carried out according to the standard procedure [European Journal of Pharmacology. 2015. V. 756. P. 43-51]. Aldar cream (5% imiquimod) was applied to female Balb/c mice on the inner side of the right ear once daily by 30 mg/mouse for 7 days (0-6th day). Vaseline was applied to the intact animals. […] Euthanasia was carried out 24 hours later (7th day) after the last application of the Aldar cream. Daily on the 0, 2nd, 3rd, 4th, 5th, 6th day, the thickness of the right ear was measured in the morning before the next application of the Aldar cream and before the euthanasia. After the euthanasia, blood was collected from the heart cavities, serum was isolated. The content of MCP1 was determined in blood serum by an enzyme-linked immunosorbent assay method, using test systems Mouse CCL2 (MCP-1) Uncoated ELISA Kit (Invitrogen).

[4] = system: non-infectious pneumonia induced by poly I:C; assay: Non-infectious pneumonia induced by intranasal administration of poly I:C to mice (BAL neutrophils, lung histology); format: in vivo, female Balb/c mice
Method: The induction of pneumonia in mice was carried out according to the standard procedure [Eur Respir J. 2013 V. 41(5). […] Female Balb/c mice were intranasally administered with 8 μg/kg of polyinosine-polycytidylic acid (poly I:C) in 30 μl of PBS on days 1, 2, 3 and 4. Then at days 15, 16, 17 and 18, in the same volume 2 μg/kg of poly I:C were administered to the animals. […] All mice were sacrificed on the 19th day of the study. The bronchus from the right lung was pinched by the ligature, the left lung was washed 3 times with 0.8 ml of the sterile PBS. After each administration of PBS into the lung, the gentle massage of the lung was carried out, PBS was drained by gravity. Finally, the final volume of the resulting bronchoalveolar lavage (BAL) was considered and written. A number of neutrophils was evaluated in the BAL (using the Diff-Quik staining). For histological study, the right lung lobe was fixed in 10% neutral formalin solution and embedded in paraffin by the standard procedure. Deparaffinated 5-micron shears were stained with hematoxylin-eosin. Each lesion was evaluated according to a 5-point scale: 1 point—the inflammatory infiltrate occupies 0-20% of the area of the histological preparation under study, 2 point—the inflammatory infiltrate occupies 21-40% of the area of the histological preparation under study, 3 points—the inflammatory infiltrate occupies 41-60% of the area of the histological preparation under study, 4 points—the inflammatory infiltrate occupies 61-80% of the area of the histological preparation under study, 5 points—the inflammatory infiltrate occupies 81-100% of the area of the histological preparation under study. Alveolar destruction index (DI) as the percentage of the damaged alveoli relative to the total number of alveoli was also calculated.

[5] = system: neutrophil and macrophage chemotaxis (carrageenan pouch); assay: Macrophage and neutrophil chemotaxis model to the site of inflammation (carrageenan pouch) in mice; format: in vivo, female Balb/c mice
Method: The induction of macrophages and neutrophils chemotaxis to the site of inflammation (carrageenan pouch) in mice was tested according to the standard procedure [Curr Protoc Pharmacol. 2012. V. 5. P. 5-6]. […] After 3 days to maintain the integrity of the air pouch without increasing the wound, 2.5 ml of air was introduced at the same site. On day 6 under CO2 anesthesia to induce inflammation, 1 ml of 1% carrageenan solution prepared in physiological saline was administered directly into the pouch. The test compound was administered intragastrically 1 hour before the administration of carrageenan and then every 10-12 hours in the volume of 0.1 ml. The last administration is 12 hours before the slaughter. Euthanasia by the inhalation of CO2 was performed 48 hours after the carrageenan injection. Immediately after the euthanasia, 1 ml of physiological saline containing 5.4 mM of EDTA of room temperature was introduced into the pouch with a sterile syringe. After gentle massage of the region of the air pouch, a sagittal incision was made across the pouch and exudate was collected by a dispenser. After the centrifugation of the exudate from the cell pellet, smears were prepared, which were then fixed in methanol and were stained by Romanowsky-Giemsa. A quantity of macrophages and neutrophils was then determined on the smears under a microscope. The cell calculation was made up to 100 pcs.

[6] = system: thermal pain irritation (hot plate); assay: Thermal pain irritation model hot plate; format: in vivo, Balb/c mice
Method: The model of thermal pain irritation “hot plate” was carried out according to the standard procedure [Valdman A. V., Ignatov Y. D. Central mechanisms of pain. L.: Nauka, 1976]. The test compound was administered to Balb/c mice intragastrically, once. After 1, 4, 6, 12, 24 hours after the administration of the preparation, the “hot plate” test was carried out. To conduct the “hot plate” test, the mice were placed on the hot plate, the temperature (+55±1° C.) of which is constant. The time of first manifestations of the pain response in mice (paw licking, jumping) was registered and the mean latent time of the threshold of pain sensitivity (TPS, sec) in each group was calculated.

[7] = system: mouse model of psoriasis; assay: Mouse model of psoriasis (Aldar cream, 5% imiquimod): ear thickness and clinical signs; format: in vivo, female Balb/c mice; details: Compound 1 30 mg/kg, Neotigason 5 mg/kg, M ± m, n = 20; for The gain of the ear thickness at the determined day of study to day 0, Day 2 / The gain of the ear thickness at the determined day of study to day 0, Day 3 / The gain of the ear thickness at the determined day of study to day 0, Day 4 / The gain of the ear thickness at the determined day of study to day 0, Day 5 / The gain of the ear thickness at the determined day of study to day 0, Day 6: intragastric once daily; for Clinical signs of psoriasis, Erythema, Day 4 / Clinical signs of psoriasis, Flakes, Day 4 / Clinical signs of psoriasis, Thickening, Day 4 / Clinical signs of psoriasis, Erythema, Day 6 / Clinical signs of psoriasis, Flakes, Day 6 / Clinical signs of psoriasis, Thickening, Day 6: score 0-4 (Table 1)
Method: as §1
2011. V. 88(1-2). P. 100-113].

[8] = system: macrophage chemotaxis (thioglycolate peritonitis); assay: Macrophage chemotaxis to the site of inflammation (thioglycolate peritonitis) in mice; format: in vivo, male Balb/c mice
Method: The induction of macrophage chemotaxis to the site of inflammation (thioglycolate peritonitis) in mice were performed according to the standard procedure [J Leukoc Biol. 2009. V. 86.(2). P. 361-370]. Male Balb/c mice were intraperitoneally administered with 2 ml of 3% thioglycolic medium stored for 1 month. The preparation of thioglycolic medium was carried out as follows: 15 g of dry thioglycolic medium was stirred in 500 ml of distilled water, was boiled at 100° C. for 2 minutes, was filtered through a paper filter, was poured out by 50 ml in sterile tubes and was sterilized by autoclaving at 121° C. for 15 minutes. […]
After 72 hours, the animals were euthanized in a CO2-chamber and the peritoneum area was wetted with 70% alcohol, the skin on the abdominal cavity was carefully cut off, and 5 ml of a cold phosphate-saline buffer containing 0.1% of ethylenediamine tetraacetic acid was injected intraperitoneally with a syringe. After gentle massage of the abdominal cavity, the exudate was collected by a syringe into tubes, and the volume of the collected exudate was determined.
Smears were prepared from the cell pellet, which smears were further fixed in methanol (5 minutes) and stained by Romanowsky-Giemsa (40 min at 20-22° C.). On the smears, under the microscope Olympus bx51 (at magnification 100) the quantity of monocytes/macrophages was counted by the routine method. […]

[9] = 30 mg/kg intragastric daily day 6-19, 5-point scale, M ± m, n = 7
[10] = 30 mg/kg intragastric, 48 hours after carrageenan, M ± m, n = 10

Compound | The gain of the ear thickness at the determined day of study to day 0, Day 2 [7] | The gain of the ear thickness at the determined day of study to day 0, Day 3 [7] | The gain of the ear thickness at the determined day of study to day 0, Day 4 [7] | Clinical signs of psoriasis, Erythema, Day 4 [7] | Clinical signs of psoriasis, Flakes, Day 4 [7] | Clinical signs of psoriasis, Thickening, Day 4 [7] | The gain of the ear thickness at the determined day of study to day 0, Day 5 [7] | The gain of the ear thickness at the determined day of study to day 0, Day 6 [7] | Clinical signs of psoriasis, Erythema, Day 6 [7] | Clinical signs of psoriasis, Flakes, Day 6 [7] | Clinical signs of psoriasis, Thickening, Day 6 [7] | further results
O=C1CCCC(=O)N1CCc1cnc[nH]1 [Compound 1, 1-(2-(1H-imidazol-4-yl)ethyl)piperidine-2,6-dione] | 7.8 ± 1.4& % | 11.2 ± 1.9& % | 33.8 ± 1.6& % | 1.5 ± 0.1*& points | 0.0 ± 0.0& points | 0.9 ± 0.1*& points | 46.9 ± 1.6*& % | 55.8 ± 0.8*& % | 1.3 ± 0.1*& points | 0.1 ± 0.1& points | 1.3 ± 0.1*& points | Interstitial pneumonia [1]: 1.08 ± 0.16& points; Peribronchitis [1]: 0.13 ± 0.07& points; Perivasculitis [1]: 1.03 ± 0.11& points; Quantity of constrictions for 15 minutes ([2]; 1 hour before the administration of acetic acid): 23.8 ± 3.7; Quantity of constrictions for 15 minutes ([2]; 2 hour before the administration of acetic acid): 22.7 ± 2.6; MCP-1 level in blood serum [3]: 113.7 ± 8.3 & pg/ml; Interstitial pneumonia [4, 9]: 0.76 ± 0.1& points; Peribronchitis [4, 9]: 0.73 ± 0.32& points; Perivasculitis [4, 9]: 0.80 ± 0.31& points; Neutrophils in 1 μl Score (bronchoalveolar lavage) ([4]; 30 mg/kg intragastric daily day 6-19, M ± m, n = 7): 0.0 ± 0.0& in 1 μl; Influx of neutrophils into the bronchoalveolar space ([4]; intragastric administration): completely abolished; Macrophages in the exudate from the carrageenan pouch [5, 10]: 0.6 ± 0.2 & ×10^9/l; Neutrophils in the exudate from the carrageenan pouch [5, 10]: 0.6 ± 0.1 & ×10^9/l; Quantity of neutrophils and macrophages in the pouch cavity ([5]; intragastric administration): to the level of intact animals; Increase of the threshold of pain sensitivity in the hot plate test ([6]; intragastric administration): 2 times; Macrophages in peritoneal exudate ([8]; 30 mg/kg intragastric, 72 hours after thioglycolate): 0.84 ± 0.16 & ×10^9/l; Quantity of macrophages in the peritoneal exudate ([8]; intragastric administration): to the level of intact animals
COc1cc(C)c(/C=C/C(C)=C/C=C/C(C)=C/C(=O)O)c(C)c1C [Neotigason, reference compound] | 14.2 ± 1.9*& % | 27.5 ± 1.8*& % | 45.9 ± 2.5*& % | 1.2 ± 0.1*& points | 0.0 ± 0.0& points | 1.4 ± 0.1*& points | 68.9 ± 1.8 % | 83.1 ± 1.4 % | 1.6 ± 0.1*& points | 0 ± 0& points | 1.3 ± 0.1*& points | 
O=C(c1ccccc1)c1ccc2n1CCC2C(=O)O (centres unmarked) [Ketorol] |  |  |  |  |  |  |  |  |  |  |  | TPS, % to the values before the administration of the preparation, after 1 hours ([6]; 1 hour after single intragastric dose, Compound 1 30 mg/kg, Ketorol 15 mg/kg, M ± m, n = 12): 146.4 ± 16.6%; TPS, % to the values before the administration of the preparation, after 4 hours ([6]; 4 hours after single intragastric dose, Compound 1 30 mg/kg, Ketorol 15 mg/kg, M ± m, n = 12): 195.9 ± 30.0 %; TPS, % to the values before the administration of the preparation, after 6 hours ([6]; 6 hours after single intragastric dose, Compound 1 30 mg/kg, Ketorol 15 mg/kg, M ± m, n = 12): 176.6 ± 34.0%; TPS, % to the values before the administration of the preparation, after 12 hours ([6]; 12 hours after single intragastric dose, Compound 1 30 mg/kg, Ketorol 15 mg/kg, M ± m, n = 12): 166.5 ± 25.3%; TPS, % to the values before the administration of the preparation, after 24 hours ([6]; 24 hours after single intragastric dose, Compound 1 30 mg/kg, Ketorol 15 mg/kg, M ± m, n = 12): 159.7 ± 22.4%
